Laboratory results reported in BindingDB's records for doi:10.1021/jm991008q (1999).
pKi: −log10 of the molar value.

Legend:
[1] = molecular target: Ornithine carbamoyltransferase (Streptococcus/Enterococcus faecalis); experiment: Binding affinity against ornithine transcarbamoylase (OTC) produced by Streptococcus faecalis The buffer taken for this study is 50 mM maleate, 0.5 mM EDTA at pH 6.0.
[2] = molecular target: Ornithine carbamoyltransferase (Streptococcus/Enterococcus faecalis); experiment: Binding affinity against ornithine transcarbamoylase (OTC) produced by Streptococcus faecalis The buffer taken for this study is 50 mM Tris.HCl, 0.5 mM EDTA at pH 7.0.
[3] = molecular target: Ornithine carbamoyltransferase (Streptococcus/Enterococcus faecalis); experiment: Binding affinity against ornithine transcarbamoylase (OTC) produced by Streptococcus faecalis The buffer taken for this study is 50 mM Tris.HCl, 0.5 mM EDTA at pH 8.0.

| pKi [1] | pKi [2] | pKi [3] | SMILES |
| --- | --- | --- | --- |
| 3.18 | 3.12 | 2.72 | N[C@@H](CCCNCP(=O)(O)CP(=O)(O)O)C(=O)O [2-Amino-5-[(hydroxy-phosphonomethyl-phosphinoylmethyl)-amino]-pentanoic acid] |
| < 1.70 | 2.64 | 2.49 | N[C@@H](CCNCP(=O)(O)CP(=O)(O)O)C(=O)O [(2S)-2-ammonio-4-[({[(hydroxyphosphinato)methyl]phosphinato}methyl)ammonio]butanoate] |

| SMILES | pKi [1] | pKi [2] | pKi [3] |
| --- | --- | --- | --- |
| CC(C)(C)OC(=O)N[C@@H](CCCNCP(=O)(O)CP(=O)(O)O)C(=O)O [(2S)-2-[(tert-butoxycarbonyl)amino]-5-[({[(hydroxyphosphinato)methyl]phosphinato}methyl)ammonio]pentanoate] | < 1.70 | 3.00 | 2.70 |
